US20170037008A1, “PHENYL BENZYL ETHER DERIVATIVE AND PREPARATION METHOD AND APPLICATION THEREOF” (BEIJING ZHIBO BIO-MEDICAL TECHNOLOGY CO., LTD, priority 2013, published 2017)
Like-named read-outs stand apart in the source and are kept apart here.

Assays:
Aβ1-42 aggregates = target: T1, Aβ1-42 aggregates (Homo sapiens, UniProt P05067); assay: In-vitro competitive binding experiments (Ki determination) with Aβ1-42 aggregates; settings: for affinity with the Aβ1-42 aggregates compared with IMPY and PIB: competitive binding experiments
T1 construct: Preparing receptor Aβ1-42 proteins according to the existing method
Procedure: Binding reaction occurs between Aβ1-42 aggregate proteins with certain concentration and radioactive ligands [^125I] […] 4, the compounds are separated after balancing, and the inhibition constant (Ki) is calculated by determining radioactivity.
(1) Preparing 4 l of PBS (0.2M) buffer solution with pH=7.4;
(2) Preparing radioligand [^125]
(3) Preparing the compounds to be determined into 10^−3 to 10^−9 mol/L continuously diluted ethanol solution;
(4) Preparing receptor Aβ1-42 proteins according to the existing method and diluting the proteins into 30 nM water solution;
(5) Soaking a glass fiber filter membrane in PBS solution containing 0.1% (volume fraction) polyethyleneimine for 0.5 h;
(6) Respectively adding 100 μl of solution of compounds with different concentration and to be determined, 100 μl of [^125I]
(7) Oscillating and incubating for 2 h in 37° C. constant-temperature water bath;
(8) Collecting reaction liquid by using a multi-head cell collector, and washing the reaction liquid for three times by using PBS, 3 ml per time;
(9) Measuring and counting by using a γ counter; and […]

logD of labeled ligands = format: physicochemical
[1] = Biological distribution in bodies of normal mice; format: in vivo, mice (ICR); settings: caudal vein injection
Excerpt: Through in-vivo distribution experiments, pharmacokinetic features, especially initial bran intake and brain removal situations of ^18F or ^125I labeled compounds in the bodies of mice are studied. […] Data are expressed in radioactive percentage dosage per organ (% ID/organ) and radioactive percentage dosage per gram of organ (% ID/g).

[2] = competition against radioligand [^125I] IMPY, Aβ1-42 aggregates, 37° C., 2 h

T1 sequence (P05067 672-713 limits assumed): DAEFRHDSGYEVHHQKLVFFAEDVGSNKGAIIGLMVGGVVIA

COc1ccc(OCc2ccc(I)cc2)cc1 [Compound 4, 1-iodo-4-((4-methoxyphenoxy)methyl) benzene]
Ki (Aβ1-42 aggregates): 28.7 ± 8 nM
affinity with the Aβ1-42 aggregates compared with IMPY and PIB (Aβ1-42 aggregates): higher than that of the known compounds IMPY and PIB

COc1cccc(OCc2ccc(I)cc2)c1 [Compound 5, 1-(4-iodobenzyloxy)-3-methoxybenzene]
Ki (Aβ1-42 aggregates): 154 ± 5.6 nM

COc1ccccc1OCc1ccc(I)cc1 [Compound 6, 1-(4-iodobenzyloxy)-2-methoxybenzene]
Ki (Aβ1-42 aggregates): 6110 ± 458 nM

Oc1ccc(OCc2ccc(I)cc2)cc1 [Compound 7, 4-(4-iodobenzyloxy) phenol]
Ki (Aβ1-42 aggregates): 134 ± 28.1 nM

Oc1cccc(OCc2ccc(I)cc2)c1 [Compound 8, 3-(4-iodobenzyloxy) phenol]
Ki (Aβ1-42 aggregates): 456 ± 135 nM

Oc1ccccc1OCc1ccc(I)cc1 [Compound 9, 2-(4-iodobenzyloxy) phenol]
Ki (Aβ1-42 aggregates): 3350 ± 611 nM

Fc1ccc(OCc2ccc(I)cc2)cc1 [Compound 10, 1-fluoro-4-(4-iodobenzyloxy) benzene]
Ki (Aβ1-42 aggregates): 127 ± 18.2 nM

Clc1ccc(OCc2ccc(I)cc2)cc1 [Compound 11, 1-chloro-4-(4-iodobenzyloxy) benzene]
Ki (Aβ1-42 aggregates): 22.3 ± 2.6 nM
affinity with the Aβ1-42 aggregates compared with IMPY and PIB (Aβ1-42 aggregates): higher than that of the known compounds IMPY and PIB

Brc1ccc(OCc2ccc(I)cc2)cc1 [Compound 12, 1-bromo-4-(4-iodobenzyloxy) benzene]
Ki (Aβ1-42 aggregates): 14.1 ± 1.2 nM
affinity with the Aβ1-42 aggregates compared with IMPY and PIB (Aβ1-42 aggregates): higher than that of the known compounds IMPY and PIB

Ic1ccc(COc2ccc(I)cc2)cc1 [Compound 13, 1-iodo-4-(4-iodobenzyloxy) benzene]
Ki (Aβ1-42 aggregates): 25.9 ± 2.4 nM
affinity with the Aβ1-42 aggregates compared with IMPY and PIB (Aβ1-42 aggregates): higher than that of the known compounds IMPY and PIB

Ic1ccc(COc2ccccc2)cc1 [Compound 14, 1-iodo-4-(phenoxymethyl) benzene]
Ki (Aβ1-42 aggregates): 93.9 ± 6.1 nM

CC(C)(C)c1ccc(OCc2ccc(I)cc2)cc1 [Compound 15, 1-tert-butyl-4-(4-iodobenzyloxy) benzene]
Ki (Aβ1-42 aggregates): 139 ± 20.9 nM

Nc1ccc(OCc2ccc(I)cc2)cc1 [Compound 16, 4-(4-iodobenzyloxy) aniline]
Ki (Aβ1-42 aggregates): 484 ± 53.2 nM

Nc1cccc(OCc2ccc(I)cc2)c1 [Compound 17, 3-(4-iodobenzyloxy) aniline]
Ki (Aβ1-42 aggregates): 1810 ± 189 nM

Nc1ccccc1OCc1ccc(I)cc1 [Compound 18, 2-(4-iodobenzyloxy) aniline]
Ki (Aβ1-42 aggregates): 1220 ± 58 nM

CNc1ccc(OCc2ccc(I)cc2)cc1 [Compound 19, 4-(4-iodobenzyloxy)-N-methylaniline]
Ki (Aβ1-42 aggregates): 57 ± 5.1 nM

CNc1cccc(OCc2ccc(I)cc2)c1 [Compound 20, 3-(4-iodobenzyloxy)-N-methylaniline]
Ki (Aβ1-42 aggregates): 702 ± 92.4 nM

CNc1ccccc1OCc1ccc(I)cc1 [Compound 21, 2-(4-iodobenzyloxy)-N-methylaniline]
Ki (Aβ1-42 aggregates): > 20000 nM

CN(C)c1ccc(OCc2ccc(I)cc2)cc1 [Compound 22, 4-(4-iodobenzyloxy)-N,N-dimethylaniline]
Ki (Aβ1-42 aggregates): 20.9 ± 1.8 nM
affinity with the Aβ1-42 aggregates compared with IMPY and PIB (Aβ1-42 aggregates): higher than that of the known compounds IMPY and PIB

CN(C)c1cccc(OCc2ccc(I)cc2)c1 [Compound 23, 3-(4-iodobenzyloxy)-N,N-dimethylaniline]
Ki (Aβ1-42 aggregates): 1060 ± 104 nM

COc1ccc(COc2ccc(I)cc2)cc1 [Compound 24, 1-iodo-4-(4-methoxybenzyloxy) benzene]
Ki (Aβ1-42 aggregates): 58.5 ± 3.5 nM

COc1ccc(SCc2ccc(I)cc2)cc1 [Compound 25, (4-iodobenzyl) (4-methoxyphenyl) sulfane]
Ki (Aβ1-42 aggregates): 627 ± 129 nM

FCCOc1ccc(OCc2ccc(I)cc2)cc1 [Compound 31a, 1-(2-fluoroethoxy)-4-((4-iodobenzyl)oxy) benzene]
Ki (Aβ1-42 aggregates): 24.1 ± 8.8 nM
affinity with the Aβ1-42 aggregates compared with IMPY and PIB (Aβ1-42 aggregates): higher than that of the known compounds IMPY and PIB

FCCOc1ccc(COc2ccc(I)cc2)cc1 [Compound 35a, 1-(2-fluoroethoxy)-4-((4-iodophenoxy)methyl) benzene]
Ki (Aβ1-42 aggregates): 23 ± 3.3 nM
affinity with the Aβ1-42 aggregates compared with IMPY and PIB (Aβ1-42 aggregates): higher than that of the known compounds IMPY and PIB

COc1ccc(OCc2ccc(OCCF)cc2)cc1 [Compound 44a, 1-(2-fluoroethoxy)-4-((4-methoxyphenoxy)methyl) benzene]
Ki (Aβ1-42 aggregates): 167 ± 34.5 nM

CNc1ccc(OCc2ccc(OCCF)cc2)cc1 [Compound 46, 4-(4-(2-fluoroethoxy)benzyloxy)-N-methylaniline]
Ki (Aβ1-42 aggregates): 460 ± 82 nM

CN(C)c1ccc(OCc2ccc(OCCF)cc2)cc1 [Compound 47, 4-(4-(2-fluoroethoxy)benzyloxy)-N,N-dimethylaniline]
Ki (Aβ1-42 aggregates): 23 ± 5.3 nM
affinity with the Aβ1-42 aggregates compared with IMPY and PIB (Aβ1-42 aggregates): higher than that of the known compounds IMPY and PIB

COc1ccc(COc2ccc(OCCF)cc2)cc1 [Compound 53a, 1-(2-fluoroethoxy)-4-(4 methoxybenzyloxy) benzene]
Ki (Aβ1-42 aggregates): 465 ± 18.8 nM

O=c1ccc(I)cn1Cc1ccc(I)cc1 [Compound 58]
Ki (Aβ1-42 aggregates; [2]): 1060 nM

FCCOc1ccc(COc2cccnc2I)cc1 [Compound 65]
Ki (Aβ1-42 aggregates; [2]): 2080 ± 458 nM

CN(C)c1ccc(CNc2ccc(I)cc2)cc1 [Compound 67, 4-(((4-iodophenyl)amino)methyl)-N,N-dimethylaniline]
Ki (Aβ1-42 aggregates): 124 ± 14.3 nM

COc1ccc(OCc2ccc(OCC[18F])cc2)cc1 [[^18F]44a]
logD (logD of labeled ligands): [^18F]44a (logD = 3.05 ± 0.08)
Blood ([1]; 2 min): 3.90 ± 0.25 % ID/g
Bone ([1]; 2 min): 1.50 ± 0.44 % ID/organ
Brain ([1]; 2 min): 7.54 ± 0.39 % ID/g
Blood ([1]; 10 min): 3.86 ± 0.24 % ID/g
Bone ([1]; 10 min): 1.04 ± 0.25 % ID/organ
Brain ([1]; 10 min): 3.32 ± 0.38 % ID/g
Blood ([1]; 30 min): 4.28 ± 0.23 % ID/g
Bone ([1]; 30 min): 1.43 ± 0.44 % ID/organ
Brain ([1]; 30 min): 2.77 ± 0.22 % ID/g
Blood ([1]; 60 min): 3.86 ± 0.39 % ID/g
Bone ([1]; 60 min): 4.05 ± 0.62 % ID/organ
Brain ([1]; 60 min): 2.33 ± 0.30 % ID/g

COc1ccc(COc2ccc(OCC[18F])cc2)cc1 [[^18F] 53a]
logD (logD of labeled ligands): [^18F] 53a (logD = 3.65 ± 0.04)
Blood ([1]; 2 min): 4.26 ± 0.41 % ID/g
Bone ([1]; 2 min): 2.37 ± 0.69 % ID/organ
Brain ([1]; 2 min): 9.95 ± 2.36 % ID/g
Blood ([1]; 10 min): 4.61 ± 0.95 % ID/g
Bone ([1]; 10 min): 2.76 ± 0.47 % ID/organ
Brain ([1]; 10 min): 2.77 ± 0.19 % ID/g
Blood ([1]; 30 min): 3.76 ± 0.19 % ID/g
Bone ([1]; 30 min): 4.02 ± 0.78 % ID/organ
Brain ([1]; 30 min): 1.44 ± 0.18 % ID/g
Blood ([1]; 60 min): 3.05 ± 1.09 % ID/g
Bone ([1]; 60 min): 5.89 ± 0.49 % ID/organ
Brain ([1]; 60 min): 1.30 ± 0.16 % ID/g

COc1ccc(COc2ccc(OCCOCCOCC[18F])cc2)cc1 [[^18F] 53b]
logD (logD of labeled ligands): [^18F] 53b (logD = 3.04 ± 0.04)
Blood ([1]; 2 min): 3.95 ± 0.34 % ID/g
Bone ([1]; 2 min): 1.36 ± 0.35 % ID/organ
Brain ([1]; 2 min): 9.71 ± 1.31 % ID/g
Blood ([1]; 10 min): 4.14 ± 0.91 % ID/g
Bone ([1]; 10 min): 1.22 ± 0.42 % ID/organ
Brain ([1]; 10 min): 2.52 ± 0.20 % ID/g
Blood ([1]; 30 min): 3.40 ± 0.25 % ID/g
Bone ([1]; 30 min): 1.39 ± 0.54 % ID/organ
Brain ([1]; 30 min): 1.39 ± 0.10 % ID/g
Blood ([1]; 60 min): 2.36 ± 0.66 % ID/g
Bone ([1]; 60 min): 1.52 ± 0.27 % ID/organ
Brain ([1]; 60 min): 1.07 ± 0.10 % ID/g

COc1ccc(OCc2ccc([125I])cc2)cc1 [[^125I]4]
logD (logD of labeled ligands): [^125I]4 (logD = 4.00 ± 0.08)
Blood ([1]; 2 min): 3.03 ± 0.54 % ID/g
Brain ([1]; 2 min): 6.18 ± 0.99 % ID/g
Thyroid ([1]; 2 min): 0.14 ± 0.04 % ID/organ
Blood ([1]; 10 min): 3.32 ± 0.65 % ID/g
Brain ([1]; 10 min): 3.54 ± 0.35 % ID/g
Thyroid ([1]; 10 min): 0.12 ± 0.04 % ID/organ
Blood ([1]; 30 min): 2.56 ± 0.93 % ID/g
Brain ([1]; 30 min): 0.88 ± 0.15 % ID/g
Thyroid ([1]; 30 min): 0.08 ± 0.01 % ID/organ
Blood ([1]; 60 min): 1.70 ± 0.50 % ID/g
Brain ([1]; 60 min): 0.38 ± 0.05 % ID/g
Thyroid ([1]; 60 min): 0.11 ± 0.02 % ID/organ

CN(C)c1ccc(OCc2ccc([125I])cc2)cc1 [[^125I]22]
logD (logD of labeled ligands): [^125I]22 (logD = 2.89 ± 0.09)
Blood ([1]; 2 min): 4.01 ± 0.28 % ID/g
Brain ([1]; 2 min): 4.91 ± 0.60 % ID/g
Thyroid ([1]; 2 min): 0.11 ± 0.03 % ID/organ
Blood ([1]; 10 min): 2.46 ± 0.30 % ID/g
Brain ([1]; 10 min): 3.26 ± 0.24 % ID/g
Thyroid ([1]; 10 min): 0.12 ± 0.03 % ID/organ
Blood ([1]; 30 min): 2.53 ± 0.27 % ID/g
Brain ([1]; 30 min): 1.34 ± 0.12 % ID/g
Thyroid ([1]; 30 min): 0.16 ± 0.04 % ID/organ
Blood ([1]; 60 min): 1.34 ± 0.26 % ID/g
Brain ([1]; 60 min): 0.49 ± 0.07 % ID/g
Thyroid ([1]; 60 min): 0.27 ± 0.04 % ID/organ

CN(C)c1ccc(-c2cn3cc([125I])ccc3n2)cc1 [[^125I]IMPY, reference compound]
Blood ([1]; 2 min): 3.85 ± 0.53 % ID/g
Brain ([1]; 2 min): 5.05 ± 0.38 % ID/g
Thyroid ([1]; 2 min): 0.12 ± 0.05 % ID/organ
Blood ([1]; 10 min): 2.81 ± 0.33 % ID/g
Brain ([1]; 10 min): 1.80 ± 0.12 % ID/g
Thyroid ([1]; 10 min): 0.09 ± 0.03 % ID/organ
Blood ([1]; 30 min): 1.50 ± 0.20 % ID/g
Brain ([1]; 30 min): 0.67 ± 0.15 % ID/g
Thyroid ([1]; 30 min): 0.22 ± 0.08 % ID/organ
Blood ([1]; 60 min): 1.03 ± 0.10 % ID/g
Brain ([1]; 60 min): 0.45 ± 0.07 % ID/g
Thyroid ([1]; 60 min): 0.30 ± 0.09 % ID/organ
